Holding throughout (assay): Anti-proliferative activity, cell-titre luminescent viability assay
Holding throughout (type): cell-based

One assay relates to DU145. The note with it: Homo sapiens, read-out: IC50 Prostate DU145. Here is the method: (§1) The ability of compounds 3501-3540 and 3542-3545 to inhibit the proliferation of cancer cells representative of neuroblastoma, melanoma, prostate cancer, colorectal cancer, non-small cell lung carcinoma, and triple negative breast cancer was assessed. Briefly, a pre-determined number of cells as calculated from cell growth assays for each of the cell lines employed were seeded into their respective culture medium (using ATCC culture parameters—http://www.atcc.org) and cultured for 24 hours at 37° C. and 5% CO2 in 96-well culture plates. Once attached, each cell line was then exposed to increasing concentrations of each respective analogue (0.03, 0.3, 3 and 30 μM for compounds in Table 1; 0.1, 0.3, 1, 3, 10 and 30 μM for compounds in Table 2), cultured for a further 72 hours and exposed to cell-titre luminescent reagent (100 μL/well) for a further 30 min) to assess for cell viability. Luminescence was captured using an EnVision multilabel reader and the data for each analogue concentration was normalized, as a percentage, to the no treatment control. For compounds 3501, 3503, 3505-08, 3512-18, 3520, 3522-24 and 3531-36, semi-log plots of Percent of Control versus concentration were prepared and IC50 determined using linear regression analysis. For compounds 3502, 3504, 3509-11, 3519, 3521, 3525-30, 3537-40 and 3542-45, cell viability was normalized to control (vehicle alone) and dose-response curves, and half maximal effective concentration (EC50) values were determined using Graph Pad Prism 6 (nonlinear regression sigmoidal dose-response variable slope).

The next assay relates to SK-N-SH. The note with it: Homo sapiens, SK-N-SH, read-out: IC50 Neuroblastoma SK-N-SH. Here is the method: as §1
For the next assay, the system named is SK-Mel-28. The note with it: Homo sapiens, SK-MEL-28, 72 hours, read-out: IC50 Melanoma SK-Mel-28. Here is the method: as §1
A further assay relates to MDA-MB-231. The note with it: Homo sapiens, read-out: IC50 Breast MDA-MB-231. On the procedure:
as §1

A further assay deals with PC3. The conditions noted are these: Homo sapiens, read-out: IC50 Prostate PC3. On the procedure:
as §1

The test system of another assay is CaCo2. The conditions noted are these: Homo sapiens, read-out: IC50 Colorectal CaCo2. Here is the method: as §1
In the next assay the test system is A549. The conditions noted are these: Homo sapiens, read-out: IC50 Lung (NSLC) A549. Here is the method:
as §1

Where [1] appears, read: DU-145, 72 h, 0.03, 0.3, 3 and 30 μM, linear regression of semi-log plots.
Setting [2] is: 72 h, 0.03, 0.3, 3 and 30 μM, linear regression of semi-log plots.
Where [3] appears, read: 0.03, 0.3, 3 and 30 μM, linear regression of semi-log plots.
The mark [4] stands for this setting: MDA-MB-231, 72 h, 0.03, 0.3, 3 and 30 μM, linear regression of semi-log plots.
Setting [5] is: PC-3, 72 h, 0.03, 0.3, 3 and 30 μM, linear regression of semi-log plots.
[6] abbreviates: Caco-2, 72 h, 0.03, 0.3, 3 and 30 μM, linear regression of semi-log plots.
[7] abbreviates: A549, 72 h, 0.03, 0.3, 3 and 30 μM, linear regression of semi-log plots.
The mark [8] stands for this setting: DU-145, 72 h, 0.1, 0.3, 1, 3, 10 and 30 μM, nonlinear regression sigmoidal dose-response (EC50).
Where [9] appears, read: 72 h, 0.1, 0.3, 1, 3, 10 and 30 μM, nonlinear regression sigmoidal dose-response (EC50).
The mark [10] stands for this setting: 0.1, 0.3, 1, 3, 10 and 30 μM, nonlinear regression sigmoidal dose-response (EC50).
Where [11] appears, read: MDA-MB-231, 72 h, 0.1, 0.3, 1, 3, 10 and 30 μM, nonlinear regression sigmoidal dose-response (EC50).
The mark [12] stands for this setting: PC-3, 72 h, 0.1, 0.3, 1, 3, 10 and 30 μM, nonlinear regression sigmoidal dose-response (EC50).
The mark [13] stands for this setting: Caco-2, 72 h, 0.1, 0.3, 1, 3, 10 and 30 μM, nonlinear regression sigmoidal dose-response (EC50).
Setting [14] is: A549, 72 h, 0.1, 0.3, 1, 3, 10 and 30 μM, nonlinear regression sigmoidal dose-response (EC50).

Where two headings read alike, the source gives them in different places.

As for `Cc1c(C)n(CCCN2CCN(C)CC2)c2ccc(Cc3cccc(C(=O)N4CCN(CCc5ccc(F)cc5)CC4)c3)cc12` [Compound 3501, (3-((2,3-dimethyl-1-(3-(4-methylpiperazin-1-yl)propyl)-1H-indol-5-yl)methyl)phenyl)(4-(4-fluorophenethyl)piperazin-1-yl)methanone], the concentration for half-maximal inhibition (IC50) turned out to be 2.6 µM with DU145 (setting [1]); 3.1 µM with SK-N-SH (setting [2]); 1.3 µM in the assay on SK-Mel-28 (setting [3]); 2.1 µM with MDA-MB-231 (setting [4]); 2.4 µM with PC3 (setting [5]); 3.1 µM in the assay on CaCo2 (setting [6]). Moreover, the IC50 in the assay on A549 (setting [7]) turned out to be 3.7 µM.
`COc1ccc(CCN2CCN(C(=O)c3cccc(Cc4ccc5c(c4)c(C)c(C)n5CCCN4CCN(C)CC4)c3)CC2)cc1` [Compound 3502, (3-((2,3-dimethyl-1-(3-(4-methylpiperazin-1-yl)propyl)-1H-indol-5-yl)methyl)phenyl)(4-(4-methoxyphenethyl)piperazin-1-yl)methanone]: the IC50 in the assay with DU145 (setting [8]) was 4.9 µM; in the assay with SK-N-SH (setting [9]), 4.6 µM; in the assay with SK-Mel-28 (setting [10]), 2.6 µM; in the assay on MDA-MB-231 (setting [11]), 4.9 µM; in the assay with PC3 (setting [12]), 5.4 µM; in the assay on CaCo2 (setting [13]), 5.8 µM. Moreover, the IC50 in the assay with A549 (setting [14]) came to 5 µM.
As to `Cc1c(C)n(CCCN2CCN(C)CC2)c2ccc(Cc3cccc(C(=O)N4CCN(CCc5ccc6c(c5)OCO6)CC4)c3)cc12` [Compound 3503, (4-(2-(benzo[d][1,3]dioxol-5-yl)ethyl)piperazin-1-yl)(3-((2,3-dimethyl-1-(3-(4-methylpiperazin-1-yl)propyl)-1H-indol-5-yl)methyl)phenyl)methanone], the IC50 with DU145 (setting [1]) came to 2.1 µM; with SK-N-SH (setting [2]) it was 2.1 µM; with SK-Mel-28 (setting [3]), 1 µM; in the assay on MDA-MB-231 (setting [4]), 1 µM; with PC3 (setting [5]), 2.4 µM; with CaCo2 (setting [6]), 3.4 µM. Moreover, the IC50 in the assay with A549 (setting [7]) stood at 1.4 µM.
With `COc1cccc(CCN2CCN(C(=O)c3cccc(Cc4ccc5c(c4)c(C)c(C)n5CCCN4CCN(C)CC4)c3)CC2)c1` [Compound 3505, (3-((2,3-dimethyl-1-(3-(4-methylpiperazin-1-yl)propyl)-1H-indol-5-yl)methyl)phenyl)(4-(3-methoxyphenethyl)piperazin-1-yl)methanone], the IC50 with DU145 (setting [1]) came out at 3.4 µM; in the assay with SK-N-SH (setting [2]), 2.6 µM; in the assay with SK-Mel-28 (setting [3]), 2.5 µM; with MDA-MB-231 (setting [4]), 2.8 µM; in the assay with PC3 (setting [5]), 2.6 µM; in the assay on CaCo2 (setting [6]), 3.6 µM. For the same molecule, the IC50 in the assay with A549 (setting [7]) worked out at 3.1 µM.
For the molecule `Cc1c(C)n(CCCN2CCN(C)CC2)c2ccc(Cc3cccc(C(=O)N4CCN(CCc5ccccc5)CC4)c3)cc12` [Compound 3506, (3-((2,3-dimethyl-1-(3-(4-methylpiperazin-1-yl)propyl)-1H-indol-5-yl)methyl)phenyl)(4-phenethylpiperazin-1-yl)methanone], the IC50 in the assay with DU145 (setting [1]) turned out to be 3.2 µM; with SK-N-SH (setting [2]), 3.7 µM; in the assay with SK-Mel-28 (setting [3]), 1.3 µM; with MDA-MB-231 (setting [4]), 1.9 µM; in the assay on PC3 (setting [5]), 2.1 µM; in the assay on CaCo2 (setting [6]), 2.7 µM. The half-maximal inhibitory concentration (IC50) in the assay on A549 (setting [7]) is 3 µM.
`COc1ccc(CCN2CCN(C(=O)c3cccc(Oc4ccc5c(c4)c(C)c(C)n5CCCN4CCN(C)CC4)c3)CC2)cc1` [Compound 3508, (3-((2,3-dimethyl-1-(3-(4-methylpiperazin-1-yl)propyl)-1H-indol-5-yl)oxy)phenyl)(4-(4-methoxyphenethyl)piperazin-1-yl)methanone]: the IC50 in the assay with DU145 (setting [1]) was 3.1 µM; with SK-N-SH (setting [2]), 1.7 µM; in the assay with SK-Mel-28 (setting [3]) it was 1.6 µM; in the assay with MDA-MB-231 (setting [4]) it was 1.8 µM; with PC3 (setting [5]), 2.4 µM; with CaCo2 (setting [6]), 3.1 µM. For the same molecule, the 50% inhibitory concentration (IC50) in the assay on A549 (setting [7]) is 1.8 µM.
Consider `Cc1c(C)n(CCCN2CCN(C)CC2)c2ccc(Oc3cccc(C(=O)N4CCN(CCc5ccc6c(c5)OCO6)CC4)c3)cc12` [Compound 3509, (4-(2-(benzo[d][1,3]dioxol-5-yl)ethyl)piperazin-1-yl)(3-((2,3-dimethyl-1-(3-(4-methylpiperazin-1-yl)propyl)-1H-indol-5-yl)oxy)phenyl)methanone], for which the IC50 in the assay with DU145 (setting [8]) turned out to be 5.9 µM; with SK-N-SH (setting [9]), 5.3 µM; with SK-Mel-28 (setting [10]), 5.1 µM; in the assay with MDA-MB-231 (setting [11]), 5 µM; in the assay on PC3 (setting [12]), 6.9 µM; in the assay with CaCo2 (setting [13]) it was 5.2 µM. For the same molecule, the IC50 with A549 (setting [14]) came out at 4.7 µM.
As to `Cc1c(C)n(CCCN2CCN(C)CC2)c2ccc(Oc3cccc(C(=O)N4CCN(CCc5cccc(F)c5)CC4)c3)cc12` [Compound 3510, (3-((2,3-dimethyl-1-(3-(4-methylpiperazin-1-yl)propyl)-1H-indol-5-yl)oxy)phenyl)(4-(3-fluorophenethyl)piperazin-1-yl)methanone], the IC50 turned out to be 8 µM in the assay on DU145 (setting [8]); 4.6 µM in the assay on SK-N-SH (setting [9]); 4.9 µM in the assay on SK-Mel-28 (setting [10]); 20.4 µM in the assay on MDA-MB-231 (setting [11]); 8 µM with PC3 (setting [12]); 5.8 µM with CaCo2 (setting [13]). Besides, the IC50 in the assay with A549 (setting [14]) is 6 µM.
`COc1cccc(CCN2CCN(C(=O)c3cccc(Oc4ccc5c(c4)c(C)c(C)n5CCCN4CCN(C)CC4)c3)CC2)c1` [Compound 3511, (3-((2,3-dimethyl-1-(3-(4-methylpiperazin-1-yl)propyl)-1H-indol-5-yl)oxy)phenyl)(4-(3-methoxyphenethyl)piperazin-1-yl)methanone]: the IC50 with DU145 (setting [8]) is 3.3 µM; in the assay on SK-N-SH (setting [9]), 2.1 µM; in the assay on SK-Mel-28 (setting [10]) it was 6.5 µM; in the assay on MDA-MB-231 (setting [11]), 19.3 µM; in the assay with PC3 (setting [12]), 2.6 µM; in the assay on CaCo2 (setting [13]), 3.5 µM. The IC50 in the assay on A549 (setting [14]) amounted to 2.6 µM.
In the case of `Cc1c(C)n(CCCN2CCN(C)CC2)c2ccc(Oc3cccc(C(=O)N4CCN(CCc5ccccc5)CC4)c3)cc12` [Compound 3512, (3-((2,3-dimethyl-1-(3-(4-methylpiperazin-1-yl)propyl)-1H-indol-5-yl)oxy)phenyl)(4-phenethylpiperazin-1-yl)methanone], the IC50 in the assay with DU145 (setting [1]) came out at 1.3 µM; in the assay on SK-N-SH (setting [2]) it was 1.8 µM; in the assay on SK-Mel-28 (setting [3]), 0.7 µM; with MDA-MB-231 (setting [4]), 1.2 µM; in the assay with PC3 (setting [5]) it was 2.1 µM; with CaCo2 (setting [6]), 3.2 µM. Further, the IC50 with A549 (setting [7]) is 1.3 µM.
Turning to `Cc1c(C)n(CCCN2CCN(C)CC2)c2ccc(Nc3cccc(C(=O)N4CCN(CCc5ccc(F)cc5)CC4)c3)cc12` [Compound 3513, (3-((2,3-dimethyl-1-(3-(4-methylpiperazin-1-yl)propyl)-1H-indol-5-yl)amino)phenyl)(4-(4-fluorophenethyl)piperazin-1-yl)methanone], the IC50 in the assay with DU145 (setting [1]) worked out at 3.8 µM; in the assay with SK-N-SH (setting [2]), 3.3 µM; with SK-Mel-28 (setting [3]), 3.4 µM; in the assay on MDA-MB-231 (setting [4]), 3.6 µM; with PC3 (setting [5]) it was 4 µM; in the assay on CaCo2 (setting [6]) it was 3.1 µM. In the assay on A549 (setting [7]), the IC50 worked out at 3.3 µM.
With `COc1ccc(CCN2CCN(C(=O)c3cccc(Nc4ccc5c(c4)c(C)c(C)n5CCCN4CCN(C)CC4)c3)CC2)cc1` [Compound 3514, (3-((2,3-dimethyl-1-(3-(4-methylpiperazin-1-yl)propyl)-1H-indol-5-yl)amino)phenyl)(4-(4-methoxyphenethyl)piperazin-1-yl)methanone], the IC50 is 3.8 µM in the assay with DU145 (setting [1]); 1.3 µM with SK-N-SH (setting [2]); 1.3 µM with SK-Mel-28 (setting [3]); 1.3 µM with MDA-MB-231 (setting [4]); 3.5 µM in the assay on PC3 (setting [5]); 3.1 µM with CaCo2 (setting [6]). Also, in the assay on A549 (setting [7]), the IC50 was determined as 1.4 µM.

(Values after patent publication US20170152226A1, “FUNCTIONALISED AND SUBSTITUTED INDOLES AS ANTI-CANCER AGENTS” (Novogen Ltd., priority 2014, published 2017).)
